Experimental findings from BindingDB's records for doi:10.1111/j.1747-0285.2005.00317.x (Abbott Laboratories, 2006) are described below.

Molecules are shown by their SMILES.

The target of this test is T1, UDP-N-acetylmuramoyl-tripeptide--D-alanyl-D-alanine ligase (Streptococcus pneumoniae (strain ATCC BAA-255 / R6), UniProt Q8DNV6).
T1 sequence (Q8DNV6 whole entry): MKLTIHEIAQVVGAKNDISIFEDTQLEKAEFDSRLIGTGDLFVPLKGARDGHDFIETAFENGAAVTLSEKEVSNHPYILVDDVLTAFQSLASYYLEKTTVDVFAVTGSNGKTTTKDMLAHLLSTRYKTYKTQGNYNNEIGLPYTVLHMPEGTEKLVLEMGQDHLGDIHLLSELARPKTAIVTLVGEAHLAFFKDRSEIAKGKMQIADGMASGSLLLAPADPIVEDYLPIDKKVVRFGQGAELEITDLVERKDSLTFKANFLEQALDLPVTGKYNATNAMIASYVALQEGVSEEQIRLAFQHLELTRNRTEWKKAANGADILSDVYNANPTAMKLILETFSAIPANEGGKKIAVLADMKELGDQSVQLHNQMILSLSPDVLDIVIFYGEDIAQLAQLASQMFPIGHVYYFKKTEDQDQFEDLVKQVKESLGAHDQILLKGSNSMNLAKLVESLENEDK
Briefly: Inhibition Assay. The text has this: Inhibition of D-Ala-D-Ala adding enzyme (MurF) from Streptococcus pneumoniase.
As a reminder, the IC50 is the concentration that inhibits the measured activity by half. High values mean weaker potency, low ones greater potency. Compound `N#Cc1cc(CCc2ccccn2)sc1NC(=O)c1cc(S(=O)(=O)N2CCOCC2)ccc1Cl` [MurF inhibitor, 14] came in with a half-inhibitory concentration (IC50) of 6 µM.

Regarding `N#Cc1c(NC(=O)c2cc(S(=O)(=O)C3CCOCC3)ccc2Cl)sc2c1CCC2` [MurF inhibitor, 3], the IC50 was 9 µM.

The compound `N#Cc1c(NC(=O)c2cc(S(=O)(=O)NCCCCO)ccc2Cl)sc2c1CCC2` [MurF inhibitor, 4] gave an IC50 of 22 µM.

`N#Cc1c(NC(=O)c2cc(S(N)(=O)=O)ccc2Cl)sc2c1CCC2` [MurF inhibitor, 6] gave an IC50 of 78 µM.

Compound `CCN(CC)S(=O)(=O)c1ccc(Cl)c(C(=O)Nc2sccc2C#N)c1` [MurF inhibitor, 12] returned an IC50 of 151 µM.

Take `CCN(CC)S(=O)(=O)c1ccc(Cl)c(C(=O)Nc2sc(Br)cc2C#N)c1` [MurF inhibitor, 13]: the midpoint of inhibition, the IC50, lay at 12.6 µM.

Consider `N#Cc1c(NC(=O)c2cc(S(=O)(=O)N3CCCCC3)ccc2Cl)sc2c1CCCC2` [MurF inhibitor, 5], for which the IC50 came out at 2.5 µM.

Take `CCN(CC)S(=O)(=O)c1cc(C(=O)Nc2sc3c(c2C#N)CCC(c2ccc(O)cc2)C3)c(Cl)cc1Cl` (stereo not drawn) [MurF inhibitor, 15]: inhibition was half-maximal at 0.07 µM (IC50).
